According to patent US11291840B2, “Neuronal stimulation model, device and methods using alternate current” (priority 2017, dated 2022):

System: dissociated rat cortical neurons
Assay: Axon 3D growth after local delivery of soluble factors in silk scaffold/collagen gel 3D brain tissue model (β III-tubulin staining, 3D neurite tracing)
Type: cell-based
Conditions: for Axon length: 3D culture, mean±SEM; for axon abundance in center core of 3D cultures (β III-tubulin 2D projections): ECM components compared to neurotrophic factors, ranking among neurotrophic factors; for axons longer compared to BDNF / axons longer compared to the control: axon lengths at DIV 7, 4 days exposure; for axons longer compared to BDNF: vs BDNF; for axons longer compared to the control: vs control culture
Source text: In one aspect of the present disclosure, control of axon growth and alignment in a CNS environment is critical for nervous system development and regenerative growth. The present disclosure explores the effects of exogenous stimulus of electrical signals and soluble factors on axon 3D growth, using a silk protein material-based 3D brain tissue model. A pair of gold wires were threaded into the 3D tissue model, positioned at the interface of the scaffold region and the center gel region, spanning the axon growth area. This setup delivered applied electrical field directly to growing axons, and the effects were compared to local delivery of soluble factors including extracellular (ECM) components and neurotrophic factors. In one embodiment, dissociated rat cortical neurons were exposed to an alternating field of 80 mV/mm at 0.5 Hz to 2 kHz or soluble factors for up to 4 days, starting on day 3 in vitro (DIV 3), and evaluated by of β III-tubulin immunostaining, confocal imaging and 3D neurite tracing. […] In one embodiment, though axon lengths under 2 Hz stimulation and LN or FN exposure were statistically similar, significant AC-induced axon orientation was found under all frequencies tested. In one embodiment, the effects include perpendicular orientation of axons trespassing an electrode and aligned axon tracts in parallel to the field direction. In one embodiment, the electrode in AC field acts as an alternating cathode that attracts the growing tip of the axon, and AC field between pair electrodes orient axon tract formation in parallel to the field direction. Provided in this disclosure is the use of alternating electric field stimulation to direct axon 3D length growth and orientation. In one aspect, the present disclosure provides stimulation parameters, in conjunction of delivery of growth promoting soluble factors in a brain mimetic 3D environment. In one aspect, the present disclosure teaches the fundamental effects of electrical fields on nervous system development and for testing neuromodulation approaches to promote neural regeneration.
The 3D brain tissue is composed of silk protein material-based scaffold and infused extracellular matrix (ECM) gel, such as collagen type I gel used in this study, as described previously (Tang-Schomer, 2014, 2015). The center region of the donut-shaped scaffold is filled with ECM gel only, for axon outgrowth; whereas the cell bodies are confined to the scaffold region. […]
Axon growth in the 3D brain tissue model was compared after local delivery of soluble factors, including extracellular matrix components such as laminin (LN) and fibronectin (FN) and brain-derived neurotrophic factor (BDNF), glial-derived neurotrophic factor (GDNF), neurotrophin-3 (NT3), and nerve growth factor (NGF) (FIGS. 13A-M). FIGS. 13A-J show representative 2D projections of β III-tubulin stained axons in the center core of 3D cultures.
The rat brain tissue dissociation protocol was approved by Tufts University Institutional Animal Care and Use Committee and complies with the NIH Guide for the Care and Use of Laboratory Animals (IACUC #B2011-45). Cortices from embryonic day 18 (E18) Sprague Dawley rats (Charles River, Wilmington, Mass., USA) were isolated, dissociated with trypsin (0.3%, Sigma) and DNase (0.2%, Roche Applied Science, Indianapolis, Ind., USA) followed with trypsin inhibition with soybean proteins (1 mg/mL, Sigma), centrifuged, and plated at 200,000-625,000 cells/cm^2 in NeuroBasal media (Invitrogen, Carlsbad, Calif., USA) supplemented with B-27 neural supplement, penicillin/streptomycin (100 U/mL and 100 μg/mL), and GlutaMax (2 mM) (Invitrogen). Cultures were maintained in 37° C., 100% humidity and 5% CO2 in an incubator (Forma Scientific, Marietta, Ohio, USA) for up to 16 days in vitro (DIV 1-16). Cultures of DIV 14-16 were used for stimulation.
Silk solution and porous scaffolds were prepared from Bombyx mori cocoons as described previously (Tang-Schomer et al., 2014). […]

[1] = 48 hr exposure after local delivery of soluble factor
[2] = 4 ds exposure of soluble factor (DIV 7), in µm

Question: For nerve growth factor [NGF], which Axon length [1] is on record?
Answer: Its Axon length is 706.5±33.4 μm.

Question: And the Axon length [2]?
Answer: Its Axon length is 1045.6±61.9.

Question: For laminin [LN], which Axon length [1] is on record?
Answer: The Axon length was 1237.7±51.3 μm.

Question: And the Axon length [2]?
Answer: Its Axon length is 1332.5±71.0.

Question: And the “axon abundance in center core of 3D cultures (β III-tubulin 2D projections)” value?
Answer: The value was “more abundant axons”.

Question: And the “axons longer compared to BDNF” value?
Answer: Its value is about 18%.

Question: And the “axons longer compared to the control” value?
Answer: Its value is about 33%.

Question: What does the source list for fibronectin [FN]?
Answer: Axon length [1]: 1220.7±57.5 μm; Axon length [2]: 1411.8±45.1; axon abundance in center core of 3D cultures (β III-tubulin 2D projections): more abundant axons; axons longer compared to BDNF: ~25%; axons longer compared to the control: ~41%

B1: glial-derived neurotrophic factor (protein, UniProt P39905 78-211, looked up)
Glial cell line-derived …: SPDKQMAVLPRRERNRQAAAANPENSRGKGRRGQRGKNRGCVLTAIHLNVTDLGLGYETKEELIFRYCSGSCDAAETTYDKILKNLSRNRRLVSDKVGQACCRPIAFDDDLSFLDDNLVYHILRKHSAKRCGCI
notes: neurotrophic factor delivered locally as soluble factor
Question: Which Axon length [1] does the source give for B1 here?
Answer: Its Axon length is 802.5±38.0 μm.

Question: What about the Axon length [2] of the same molecule?
Answer: The Axon length was 1068.3±43.9.

B2: brain-derived neurotrophic factor (protein, UniProt P23560 19-247, looked up)
Neurotrophic factor BDNF …: APMKEANIRGQGGLAYPGVRTHGTLESVNGPKAGSRGLTSLADTFEHVIEELLDEDQKVRPNEENNKDADLYTSRVMLSSQVPLEPPLLFLLEEYKNYLDAANMSMRVRRHSDPARRGELSVCDSISEWVTAADKKTAVDMSGGTVTVLEKVPVSKGQLKQYFYETKCNPMGYTKEGCRGIDKRHWNSQCRTTQSYVRALTMDSKKRIGWRFIRIDTSCVCTLTIKRGR
notes: as for B1
Question: Which results are given for B2?
Answer: Axon length [1]: 946.8±35.2 μm; Axon length [2]: 1131.1±52.0; axon abundance in center core of 3D cultures (β III-tubulin 2D projections): most abundant axons; axons longer compared to the control: ~13%

B3: neurotrophin-3 (protein, UniProt P20783 139-257, looked up)
Neurotrophin-3: YAEHKSHRGEYSVCDSESLWVTDKSSAIDIRGHQVTVLGEIKTGNSPVKQYFYETRCKEARPVKNGCRGIDDKHWNSQCKTSQTYVRALTSENNKLVGWRWIRIDTSCVCALSRKIGRT
notes: as for B1
Question: With B3 as the molecule, how does the “axon appearance after 48 hr exposure” value (48 hr exposure) read?
Answer: The value was “robust growth”.

Question: And the Axon length [1]?
Answer: The Axon length was 728.2±42.5 μm.

Question: And the “axon appearance after 4 days” value (4 days after local delivery)?
Answer: The value was “signs of axon degeneration”.

Question: And the Axon length [2]?
Answer: Its Axon length is 784.3±71.6.
